# Legend:
# [1] = Particle size analysis by laser diffraction; type: physicochemical; details: commercial grade, needle-like crystals
# Protocol: Studies were run using sutures coated with the sodium houttuyfonate antimicrobial coatings disclosed herein, with the sodium houttuyfonate coatings prepared using either ground or unground sodium houttuyfonate. The sutures were coated at two coating levels, using the coating method described hereinabove. Particle size analysis was performed using a Beckman Coulter model LS 320 laser diffraction particle size analyzer. Results for these studies are presented below in Tables 5-7 and graphically depicted in FIGS. 1 and 2.
# [2] = test system: Micrococcus catarrhalis, Staphylococcus aureus, Bacillus influenzae, pneumococcus, Escherichia coli, Bacillus dysenteria, Bacillus proteus, Bacillus …; details: in words; cited from earlier work
# [3] = test system: Bacillus typhi, and Leptopira; details: in words; cited from earlier work
# [4] = in words; cited from earlier work
# [5] = cited from earlier work
# susceptible strains = details: in words; cited from earlier work
compound,measurement,setting,value
"CCCCCCCCCC(=O)CC(O)S(=O)(=O)O (centres unmarked) [Commercial grade sodium houttuyfonate, sodium houttuyfonate]","particle size distribution, mean",[1],approximately 145 μm
"CCCCCCCCCC(=O)CC=O [Houttuynin, decanoyl acetaldehyde]",inhibitory effect in vitro,[2],marked inhibitory effect
same,effect in vitro,[3],strong effect
same,stability,[4],unstable and prone to polymerize
CCCCCCCCCC(=O)CC(O)S(=O)(=O)O (centres unmarked) [sodium houttuyfonate],solubility in cold water,[5]; cold water,only slightly soluble
same,solubility in most organic solvents,[5]; organic solvents such as acetonitrile and methanol,only slightly soluble
same,stability,[4],more stable
Oc1cc(Cl)ccc1Oc1ccc(Cl)cc1Cl [triclosan],mode of antibacterial activity,susceptible strains,predominantly bacteriostatic activity

# Reference: patent US20130196052A1, “ANTIMICROBIAL/ANTIBACTERIAL MEDICAL DEVICES COATED WITH TRADITIONAL CHINESE MEDICINES” (ETHICON, INC., priority 2009, published 2013)
